This is an account of results in US10864198B2, “Methods of preventing cardiovascular events in residual risk dyslipidemic populations” (Kowa Company, Ltd., priority 2016, dated 2020).

The target of one series is T1, PPARδ (Homo sapiens, UniProt Q03181).
T1 sequence (Q03181 1-441): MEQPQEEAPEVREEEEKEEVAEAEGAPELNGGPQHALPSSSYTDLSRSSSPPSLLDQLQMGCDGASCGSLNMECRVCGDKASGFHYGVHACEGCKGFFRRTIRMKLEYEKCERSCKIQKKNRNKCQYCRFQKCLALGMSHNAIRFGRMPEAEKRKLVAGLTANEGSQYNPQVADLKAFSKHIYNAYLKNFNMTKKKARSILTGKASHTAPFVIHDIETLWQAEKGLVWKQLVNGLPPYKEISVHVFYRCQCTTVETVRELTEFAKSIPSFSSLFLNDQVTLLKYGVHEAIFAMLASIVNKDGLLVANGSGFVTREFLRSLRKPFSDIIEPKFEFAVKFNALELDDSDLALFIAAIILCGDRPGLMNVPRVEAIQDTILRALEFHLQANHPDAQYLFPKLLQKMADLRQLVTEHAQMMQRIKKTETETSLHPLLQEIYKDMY
The note with it: PPAR transcriptional activity; Fruchart 2013 Table 1; cited from earlier work.

The next series deals with men with dyslipidemia. The note with it: Helsinki Heart Study and VA-HIT Study; cited from earlier work.
For series [1], the system named is patients on statins with residual cardiovascular risk. The note with it: two clinical trials; cited from earlier work.
The subject of series [2] is dyslipidemia patients on concurrent statin therapy. The class given is in vivo, human. Conditions: for LDL-C levels increase vs. placebo: significant. An excerpt:
The results of the study are depicted in FIGS. 1A-1D.

In series [3] the test system is patients with type 2 diabetes mellitus with residual dyslipidemia on statin. Description: Example 2: post-hoc analysis of type 2 diabetes patients of the Example 1 study. The note with it: for increase in HDL-C / BQ LDL-C increase: significant. The class given is in vivo, human. The source says: Overall, 161 type 2 diabetes mellitus patients were randomized and 154 patients completed treatment. […] Tables 1-4 also report the results of the analyses, and compare the results to the results obtained for the general residual dyslipidemia population studied in Example 1.

For series [4], the system named is patients with fasting high TG and non-HDL-C treated with pitavastatin. Description: Example 3: double-blind parallel-group study, pemafibrate add-on to pitavastatin, 12 weeks. Format: in vivo, human. The note with it: for Fasting non-HDL-C reduction: with pitavastatin, placebo −5.9%; for Fasting TG reduction (percentage change from baseline): with pitavastatin 2 mg/day, P<0.001 vs placebo (−6.9%). The source says: The primary endpoint was the percentage change in TG from baseline and incidence of adverse drug reactions (ADRs) and adverse events (AEs).

A further series addresses T2, PPARγ (Homo sapiens, UniProt P37231).
T2 sequence (P37231 1-505): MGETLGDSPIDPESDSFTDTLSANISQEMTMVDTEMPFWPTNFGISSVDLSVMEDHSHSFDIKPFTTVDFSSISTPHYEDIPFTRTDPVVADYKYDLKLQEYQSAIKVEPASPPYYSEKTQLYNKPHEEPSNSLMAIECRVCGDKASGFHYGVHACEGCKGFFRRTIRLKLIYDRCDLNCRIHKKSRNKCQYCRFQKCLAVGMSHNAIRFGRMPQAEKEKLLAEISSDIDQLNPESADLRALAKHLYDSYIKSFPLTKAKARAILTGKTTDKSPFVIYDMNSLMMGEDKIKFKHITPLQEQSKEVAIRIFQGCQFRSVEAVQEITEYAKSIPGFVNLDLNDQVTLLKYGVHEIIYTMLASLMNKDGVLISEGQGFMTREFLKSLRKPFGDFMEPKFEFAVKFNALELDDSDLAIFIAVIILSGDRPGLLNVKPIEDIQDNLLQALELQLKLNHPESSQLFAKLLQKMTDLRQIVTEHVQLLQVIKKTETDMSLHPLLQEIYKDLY
Conditions: PPAR transcriptional activity; Fruchart 2013 Table 1; cited from earlier work.

Read-outs that look alike come from different tables or passages of the source.

For `CC(C)OC(=O)C(C)(C)Oc1ccc(C(=O)c2ccc(Cl)cc2)cc1` [Fenofibrate, reference compound], the “PPARδ EC50” value at PPARδ is reported as “not activated”.
Consider `Cc1ccc(C)c(OCCCC(C)(C)C(=O)O)c1` [gemfibrozil], for which, in the series on men with dyslipidemia, the “primary endpoint for reducing cardiovascular risk” value was “met their primary endpoint”.
Take `O=C(O)c1cccnc1` [niacin]: the “prevention of cardiovascular events” value in series [1] is reported as “unable to prevent cardiovascular events”.
On to `CC[C@@H](Oc1cccc(CN(CCCOc2ccc(OC)cc2)c2nc3ccccc3o2)c1)C(=O)O` [pemafibrate, Pemafibrate], for which the “LDL-C levels increase vs. placebo” value in series [2] (0.1 mg BID, 12 weeks) was found to be 22.46%; in series [2] (0.2 mg BID, 12 weeks), 24.25%; in series [2] (0.4 mg QD, 12 weeks), 18.74%. In addition, the Non-HDL-C levels result in series [2] (0.2 mg BID, 12 weeks) is recorded as “significantly reduced”; in series [2] (0.2 mg QD, 12 weeks) it was “significantly reduced”. Also, the TG levels result in series [2] (all treatment groups after 12 weeks) and in series [3] (across all doses) was “significantly reduced” throughout. The “change in total Apo B” value in series [2] (any dose, 12 weeks) was “no significant change”; in series [3] (any dose), “no significant change”. Further, the “Adverse events, patients” value in series [2] (both, human, in vivo, 12 weeks) worked out at 46.4%. The entries for the “increase in HDL-C” value in series [3] (0.05 mg BID), in series [3] (0.1 mg BID) and in series [3] (0.2 mg QD) were 11.39%, 11.94% and 9.48%, respectively. The “BQ LDL-C increase” value in series [3] (0.1 mg QD) is given as 6.7%; in series [3] (0.2 mg BID), 1.8%. Also, the “Apo B48 levels” value in series [3] (all doses) is on record as “significantly reduced”. Further, the “Apo CIII levels” value in series [3] (all doses) is reported as “significantly reduced”. Besides, the remnant-C levels entry in series [3] (all doses) is listed as “significantly reduced”. Moreover, the “fasting plasma glucose compared to placebo” value in series [4] (0.4 mg/day, P=0.003) is on record as “significant reductions”. In addition, the “HOMA-IR compared to placebo” value in series [4] (0.4 mg/day, P=0.019) is “significant reductions”. In addition, the “very small LDL-C compared to placebo” value in series [4] (HPLC analysis, P<0.05) is “significant reduction”. Also, the “effect on total LDL-C” value in series [4] (add-on to pitavastatin, 12 weeks) is “neutral effect”. The “Apo CIII compared to placebo” value in series [4] (all pemafibrate groups, P<0.01) was “reductions”. For the same molecule, in series [4] (all pemafibrate groups, P<0.01), the “HDL-C compared to placebo” value is “Significant increase”. Also, the “VLDL-C compared to placebo” value in series [4] (all pemafibrate groups, P<0.01) is listed as “reductions”. Besides, the “remnant lipoprotein cholesterol compared to placebo” value in series [4] (all pemafibrate groups, P<0.01) is on record as “reductions”. For the same molecule, the “Fasting non-HDL-C reduction” value in series [4] (pemafibrate 0.1 mg, 12 weeks) is −11.3%; in series [4] (pemafibrate 0.2 mg, 12 weeks), −14.1%; in series [4] (pemafibrate 0.4 mg, 12 weeks), −13.3%. For the same molecule, the “Fasting TG reduction (percentage change from baseline)” value is −46.1% in series [4] (pemafibrate 0.1 mg/day twice-daily, 12 weeks); −53.4% in series [4] (pemafibrate 0.2 mg/day twice-daily, 12 weeks); −52.0% in series [4] (pemafibrate 0.4 mg/day twice-daily, 12 weeks). Besides, the EC50 is 2300 nM at PPARγ and 1000 nM on PPARδ.

The term EC50 denotes the concentration giving half of the maximal effect.
